In patent publication US5830434A, “Methods of treating non-insulin dependent diabetes mellitus with pancreatic polypeptide” (Medical University of South Carolina Foundation for …, priority 1997, dated 1998):

Experiments:
[1] = system: G proteins migrating at 41 kDa in liver plasma membranes; assay: Receptor dependent labeling of hepatocyte G proteins with AA-[32P]GTP; format: biochemical
Experimental: Receptor dependent labeling of hepatocyte G proteins with 4-Azidoanilido-α[^32 P]GTP. The protocol for labeling G proteins with AA-GTP was as described previously (11). The AA-[32P]-GTP used in the labeling experiments was prepared according to the protocol of Offermans et al. (6,7).
The purpose of these labeling studies was to determine whether PP stimulated the binding of AA-[^32 P]GTP to proteins migrating at the known molecular weight of G proteins in liver plasma membranes. […] Incubation of liver plasma membranes with 1 μM angiotensin II produced a two-fold increase in labeling of G protein(s) migrating at 41 kDa on SDS PAGE gels The 41 kDa band represents the pertussis-sensitive G protein family that is expressed in hepatocytes and which couples to angiotensin II receptors.

glucagon receptor [2] = molecular target: T1, glucagon receptor (Rattus norvegicus, UniProt P30082); assay: Glucagon saturation binding in liver plasma membranes; design: species or system Zucker rat
T1 construct: from tissue; host or cells: liver plasma membranes of lean and fatty (fa/fa) Zucker rats
T1 sequence (P30082 27-485): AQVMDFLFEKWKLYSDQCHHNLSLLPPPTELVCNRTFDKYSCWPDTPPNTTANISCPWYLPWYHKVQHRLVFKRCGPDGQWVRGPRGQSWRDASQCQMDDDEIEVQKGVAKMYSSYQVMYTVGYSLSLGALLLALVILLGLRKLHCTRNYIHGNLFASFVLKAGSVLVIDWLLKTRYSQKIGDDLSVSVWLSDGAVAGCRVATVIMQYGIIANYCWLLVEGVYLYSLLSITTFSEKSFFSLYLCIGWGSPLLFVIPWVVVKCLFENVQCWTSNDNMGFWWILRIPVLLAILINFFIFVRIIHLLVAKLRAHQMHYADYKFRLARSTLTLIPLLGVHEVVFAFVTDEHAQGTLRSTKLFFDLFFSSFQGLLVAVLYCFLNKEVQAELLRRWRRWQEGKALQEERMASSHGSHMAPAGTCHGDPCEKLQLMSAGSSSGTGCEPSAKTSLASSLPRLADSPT
Experimental: (§1) Experimental Animal Protocol. Lean (+/?) and fatty (fa/fa) Zucker rats were obtained from Harlan Labs at seven weeks of age and randomly assigned to two groups within each phenotype. One group was injected subcutaneously with PP (Peninsula Labs (Belmont, Calif.) (200 μg/day/kg body weight) in a vehicle of physiological saline (0.9% w/v) while the other group was injected with only vehicle. The two groups within each phenotype received their respective treatments for five days, after which the animals were weighed and sacrificed following an overnight fast. Blood samples were obtained from each animal for assays of plasma glucose and insulin according to standard methods known in the art (3) and the pancreas was removed and subjected to an acid-ethanol extraction (0.1N HCl, 70% ethanol) as described previously for assay of pancreatic insulin (3). Livers were removed into ice cold balanced salt solution. […]
Binding curves were analyzed using nonlinear least squares.

glucagon receptor [3] = molecular target: T1, glucagon receptor; assay: Glucagon competition binding in liver plasma membranes (50 pM labeled glucagon, with and without GTP); design: species or system Zucker rat
adenylyl cyclase = assay: Adenylyl cyclase assay in liver plasma membranes; format: biochemical, Zucker rat; details: for effect of PP treatment on efficacy of glucagon in activating adenylyl cyclase: PP 200 μg/day/kg s.c. five days
Experimental: Lean (+/?) and fatty (fa/fa) Zucker rats were obtained from Harlan Labs at seven weeks of age and randomly assigned to two groups within each phenotype. One group was injected subcutaneously with PP (Peninsula Labs (Belmont, Calif.) (200 μg/day/kg body weight) in a vehicle of physiological saline (0.9% w/v) while the other group was injected with only vehicle. The two groups within each phenotype received their respective treatments for five days, after which the animals were weighed and sacrificed following an overnight fast. Blood samples were obtained from each animal for assays of plasma glucose and insulin according to standard methods known in the art (3) and the pancreas was removed and subjected to an acid-ethanol extraction (0.1N HCl, 70% ethanol) as described previously for assay of pancreatic insulin (3). Livers were removed into ice cold balanced salt solution. After cooling, each liver was cleaned of connective tissue and minced into 2-4 mm pieces with scissors in 5 ml of ice-cold homogenizing buffer (50 mM Hepes, pH 6.5, 5 mM EDTA, 3 mM orthophenanthroline, 0.2 μM iodoacetic acid, 1 mM PMSF, 25 μm leupeptin (3). The minced liver was homogenized in a 40 ml Dounce homogenizer in 25 ml of homogenizing buffer with 25 strokes of the loose pestle and three strokes of the tight pestle. The homogenate was centrifuged for five minutes at 3000×g. The supernatant was removed and centrifuged for 20 min at 16,000×g. The resulting pellet was retained, resuspended in phosphate buffered saline (PBS) containing 5 mM MgCl2 and homogenized with five strokes of the Dounce homogenizer. After centrifuging for 20 min at 16,000×g, the membrane pellet was resuspended in homogenizing buffer containing 0.1% bovine serum albumin (BSA). Aliquots were frozen in liquid nitrogen and stored at -80° C.
Adenylyl cyclase activity leading to the production of cAMP was determined in liver plasma membranes by methods previously described (2, 4). […] Cyclic AMP formed in the reaction was measured in the supernatant by radioimmunoassay according to methods described previously (2, 4). […]

Gs α = assay: Western blot assay of Gs α in liver plasma membranes; format: in vivo, Zucker rat; details: PP 200 μg/day/kg s.c. five days
Experimental: as §1, with “(3).” for “(3). Livers were removed into ice cold balanced salt solution.”
Purified liver plasma membranes were solubilized on ice for one hour in 20 mM Tris, 1 mM EDTA, 1 mM DTT, 100 mM NaCl and 0.9% sodium cholate (pH 8.0). […] Following the procedure of Mumby (20), the PVDF membranes were probed with Gs α IgG and the bands were detected with ^125 I-labeled goat anti-rabbit IgG (1.0×10^6 cpm/ml). […]
In performing the Western blot assays, protein was carefully measured in the liver plasma membrane supernatant to assure that equal amounts of soluble membrane protein would be loaded from the respective treatment groups.

increase in AA-[32P]GTP labeling of G protein(s) migrating at 41 kDa ([1]; 1 μM)	Compound	effect of PP treatment on total glucagon binding sites (glucagon receptor [2]; either phenotype (lean and fatty Zucker rats), PP 200 μg/day/kg s.c. five days)	Bmax, total glucagon binding sites (glucagon receptor [2]; liver membranes of fatty Zucker rats treated with PP 200 μg/day/kg s.c. for five days) [fmol/mg]	percentage of high affinity glucagon binding sites (glucagon receptor [3]; fatty Zucker rats treated with PP for five days) [%]	percentage of high affinity glucagon binding sites (glucagon receptor [3]; lean Zucker rats treated with PP for five days) [%]	labeling of G proteins migrating at 41 kDa, result in words [1]	maximal increase in AA-[32P]GTP labeling of G proteins migrating at 41 kDa ([1]; maximal effect)	effect of PP treatment on efficacy of glucagon in activating adenylyl cyclase (adenylyl cyclase; fatty Zucker rats)	effect of PP treatment on efficacy of glucagon in activating adenylyl cyclase (adenylyl cyclase; lean Zucker rats)	maximal adenylyl cyclase activation by glucagon (adenylyl cyclase; second replicate, PP treated fatty Zucker rats (200 μg/day/kg s.c., five days)) [pmol cAMP/min/mg]	effect of PP treatment on hepatic Gs α expression (Gs α; fatty Zucker rats)	effect of PP treatment on hepatic Gs α expression (Gs α; lean Zucker rats)
two-fold	angiotensin II (DRVYIHPF; Angiotensin-2; UniProt P01019 25-32, looked up) [positive control that couples to pertussis-sensitive G proteins, reference compound]	–	–	–	–	–	–	–	–	–	–	–
–	CC[C@H](C)[C@H](NC(=O)[C@H](Cc1ccc(O)cc1)NC(=O)[C@H](CCCNC(=N)N)NC(=O)[C@H](CCCNC(=N)N)NC(=O)[C@H](CC(C)C)NC(=O)[C@H](CC(=O)O)NC(=O)[C@H](C)NC(=O)[C@H](C)NC(=O)[C@H](Cc1ccc(O)cc1)NC(=O)[C@H](CCC(N)=O)NC(=O)[C@H](C)NC(=O)[C@H](CCSC)NC(=O)[C@H](CCC(N)=O)NC(=O)[C@H](CCC(=O)O)NC(=O)[C@@H]1CCCN1C(=O)[C@@H](NC(=O)[C@H](C)NC(=O)[C@H](CC(N)=O)NC(=O)[C@H](CC(=O)O)NC(=O)CNC(=O)[C@@H]1CCCN1C(=O)[C@H](Cc1ccc(O)cc1)NC(=O)[C@@H](NC(=O)[C@@H]1CCCN1C(=O)[C@H](CCC(=O)O)NC(=O)[C@H](CC(C)C)NC(=O)[C@@H]1CCCN1C(=O)[C@H](C)N)C(C)C)[C@@H](C)O)C(=O)N[C@@H](CC(N)=O)C(=O)N[C@@H](CCSC)C(=O)N[C@@H](CC(C)C)C(=O)N[C@H](C(=O)N[C@@H](CCCNC(=N)N)C(=O)N1CCC[C@H]1C(=O)N[C@@H](CCCNC(=N)N)C(=O)N[C@@H](Cc1ccc(O)cc1)C(N)=O)[C@@H](C)O [PP]	failed to alter total glucagon binding sites	569 ± 45	71	55	concentration-dependent increase in labeling	approximately two-fold	significant decrease in the efficacy of glucagon	did not modify the efficacy of glucagon	60.2±1.5	decreased hepatic expression of Gs α to levels similar to that seen in lean rats	not altered
